Measurements taken from PubChem BioAssay AID292 (DTP/NCI, 2004).
Several values for one entry are separate records, joined by “and”; a condition that tells them apart may be missing. Equal entries are not always repeated. Toxic doses and inconclusive results are not listed.

System: B6C3F1 mice, ip Sarcoma M5076, median survival T/C
Assay: NCI In Vivo Anticancer Drug Screen. Data for tumor model Sarcoma M5076 (intraperitoneal) in B6C3F1 mice
Conditions: endpoint: median survival time, schedule: Q04DX004 (ip), higher = longer survival
Summary of the method: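 The readout is a ratio of survival in drug-treated animals to survival in animals given vehicle alone, taken in mice bearing a transplanted tumour line.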

[1] = dose: 12.5 mg/kg/injection, vehicle: Klucel (hydroxypropylcellulose) (HPC)
[2] = dose: 25.0 mg/kg/injection, vehicle: Klucel (hydroxypropylcellulose) (HPC)
[3] = dose: 50.0 mg/kg/injection, vehicle: Klucel (hydroxypropylcellulose) (HPC)
[4] = dose: 100.0 mg/kg/injection, vehicle: Klucel (hydroxypropylcellulose) (HPC)
[5] = dose: 200.0 mg/kg/injection, vehicle: Klucel (hydroxypropylcellulose) (HPC)
[6] = dose: 400.0 mg/kg/injection, vehicle: Klucel (hydroxypropylcellulose) (HPC)
[7] = dose: 800.0 mg/kg/injection, vehicle: Klucel (hydroxypropylcellulose) (HPC)

## N#CC1C(=O)NC(=S)NC1c1ccc2c(c1)CCC2 (centres undefined)
dose: 50.0 mg/kg/injection, vehicle: saline
  T/C: 103 % of control
dose: 100.0 mg/kg/injection, vehicle: saline
  T/C: 97 % of control
dose: 200.0 mg/kg/injection, vehicle: saline
  T/C: 102 % of control

## N=C(N)c1ccc(N=Nc2c(O)ccc3cc(O)ccc23)cc1
[1]
  T/C: 98 % of control and 103 % of control
[2]
  T/C: 95 % of control and 99 % of control
[3]
  T/C: 96 % of control and 103 % of control
[4]
  T/C: 100 % of control and 103 % of control
[5]
  T/C: 97 % of control and 98 % of control

## CC(=O)[O][Pb]([O]C(C)=O)([c]1ccccc1)[c]1ccccc1
[3]
  T/C: 100 % of control
[4]
  T/C: 104 % of control
[5]
  T/C: 99 % of control
[6]
  T/C: 97 % of control
[7]
  T/C: 114 % of control

## CC1C=NNC1=O (centres undefined)
[3]
  T/C: 103 % of control
[4]
  T/C: 101 % of control
[5]
  T/C: 121 % of control
[6]
  T/C: 102 % of control
[7]
  T/C: 112 % of control

## COC(=O)C1(F)C(=O)NC(=O)NC1OC (centres undefined)
[3]
  T/C: 100 % of control and 102 % of control
[4]
  T/C: 106 % of control and 116 % of control
[5]
  T/C: 104 % of control and 113 % of control
[6]
  T/C: 109 % of control and 113 % of control
[7]
  T/C: 102 % of control and 116 % of control

## Cc1ccc(N=NN(C)C)cc1NC(=O)NCC(=O)OC(C)(C)C
dose: 16.25 mg/kg/injection, vehicle: saline with Tween-80
  T/C: 103 % of control
dose: 32.5 mg/kg/injection, vehicle: saline with Tween-80
  T/C: 98 % of control
dose: 65.0 mg/kg/injection, vehicle: saline with Tween-80
  T/C: 111 % of control
dose: 130.0 mg/kg/injection, vehicle: saline with Tween-80
  T/C: 108 % of control
dose: 260.0 mg/kg/injection, vehicle: saline with Tween-80
  T/C: 118 % of control

## NS(=O)(=O)OCCCCCCCOS(N)(=O)=O
dose: 25.0 mg/kg/injection, vehicle: saline with Tween-80
  T/C: 124 % of control
dose: 100.0 mg/kg/injection, vehicle: saline with Tween-80
  T/C: 185 % of control

## CO[C@@H]1C2=CC=CC=C[C@H]2n2c(=O)n(C)c(=O)n21
dose: 37.5 mg/kg/injection, vehicle: other
  T/C: 104 % of control
dose: 75.0 mg/kg/injection, vehicle: other
  T/C: 100 % of control
dose: 150.0 mg/kg/injection, vehicle: other
  T/C: 100 % of control
dose: 300.0 mg/kg/injection, vehicle: other
  T/C: 104 % of control

## OCCOCCN1CCN(CCCN2c3ccccc3Sc3ccc(C(F)(F)F)cc32)CC1
dose: 0.75 mg/kg/injection, vehicle: saline
  T/C: 105 % of control
dose: 1.5 mg/kg/injection, vehicle: saline
  T/C: 110 % of control
dose: 3.0 mg/kg/injection, vehicle: saline
  T/C: 91 % of control
dose: 6.0 mg/kg/injection, vehicle: saline
  T/C: 105 % of control
dose: 7.5 mg/kg/injection, vehicle: saline
  T/C: 96 % of control and 100 % of control and 103 % of control
dose: 12.0 mg/kg/injection, vehicle: saline
  T/C: 104 % of control
dose: 15.0 mg/kg/injection, vehicle: saline
  T/C: 102 % of control and 107 % of control and 119 % of control
dose: 30.0 mg/kg/injection, vehicle: saline
  T/C: 101 % of control and 107 % of control and 122 % of control
dose: 60.0 mg/kg/injection, vehicle: saline
  T/C: 96 % of control (2×) and 101 % of control

## CCC1=C(c2cccc(OC(C)=O)c2)C(C)c2ccc(OC(C)=O)cc21 (centres undefined)
dose: 6.25 mg/kg/injection, vehicle: Klucel (hydroxypropylcellulose) (HPC)
  T/C: 93 % of control
[1]
  T/C: 93 % of control
[2]
  T/C: 100 % of control
[3]
  T/C: 116 % of control
[4]
  T/C: 105 % of control
[5]
  T/C: 91 % of control
